From the Kinase Knowledgebase extract (Sharma et al. 2016)

Target: EGFR (UniProt P00533)
Sequence (P00533 whole entry, looked up): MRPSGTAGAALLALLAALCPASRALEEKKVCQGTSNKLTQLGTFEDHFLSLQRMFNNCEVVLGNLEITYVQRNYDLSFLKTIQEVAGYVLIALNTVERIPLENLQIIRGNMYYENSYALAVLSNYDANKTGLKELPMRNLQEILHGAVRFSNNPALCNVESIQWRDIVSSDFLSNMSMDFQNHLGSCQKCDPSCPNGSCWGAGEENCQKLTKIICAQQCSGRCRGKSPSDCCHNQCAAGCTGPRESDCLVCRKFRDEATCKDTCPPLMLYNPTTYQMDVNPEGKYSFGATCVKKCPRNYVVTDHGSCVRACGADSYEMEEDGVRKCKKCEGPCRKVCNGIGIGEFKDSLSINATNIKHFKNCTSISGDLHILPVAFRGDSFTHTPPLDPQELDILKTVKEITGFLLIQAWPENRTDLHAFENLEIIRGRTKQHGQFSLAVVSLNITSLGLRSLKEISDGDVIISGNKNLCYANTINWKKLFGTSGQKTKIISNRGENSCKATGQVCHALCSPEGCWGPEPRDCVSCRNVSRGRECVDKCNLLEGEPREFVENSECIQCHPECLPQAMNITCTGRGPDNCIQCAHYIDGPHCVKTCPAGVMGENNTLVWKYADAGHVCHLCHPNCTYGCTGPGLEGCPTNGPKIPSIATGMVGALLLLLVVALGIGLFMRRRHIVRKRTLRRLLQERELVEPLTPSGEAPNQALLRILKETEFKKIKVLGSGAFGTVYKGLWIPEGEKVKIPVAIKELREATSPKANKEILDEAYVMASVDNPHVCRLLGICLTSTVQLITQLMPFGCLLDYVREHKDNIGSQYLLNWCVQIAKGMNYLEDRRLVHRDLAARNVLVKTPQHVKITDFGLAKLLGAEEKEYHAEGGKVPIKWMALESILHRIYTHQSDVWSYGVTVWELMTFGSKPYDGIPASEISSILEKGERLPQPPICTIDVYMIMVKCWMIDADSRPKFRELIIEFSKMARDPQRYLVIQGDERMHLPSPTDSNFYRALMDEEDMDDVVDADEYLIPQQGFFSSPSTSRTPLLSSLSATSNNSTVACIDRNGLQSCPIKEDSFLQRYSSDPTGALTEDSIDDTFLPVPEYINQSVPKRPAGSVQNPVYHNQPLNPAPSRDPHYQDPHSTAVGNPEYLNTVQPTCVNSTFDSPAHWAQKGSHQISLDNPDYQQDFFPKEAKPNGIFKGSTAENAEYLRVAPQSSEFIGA

Row | Compound | IC50 [µM]
1 | CC(C)NC(=O)Nc1coc2ccccc2c1=O | > 100
2 | CCNC(=O)Nc1coc2ccccc2c1=O | > 100
3 | CN(C)Cc1coc2ccccc2c1=O | > 100
4 | CNC(=O)Nc1csc2ccccc2c1=O | > 100
5 | CCNC(=O)NC1=CS(=O)(=O)c2ccccc2C1=O | > 100
6 | CCNC(=O)Nc1csc2ccc(C)cc2c1=O | > 100
7 | O=C(O)C(=O)Nc1csc2ccccc2c1=O | > 100
8 | O=c1cc(-c2ccccc2)oc2ccccc12 | 50
9 | CCNC(=O)Nc1csc2ccc(F)cc2c1=O | > 100
10 | CCOC(=O)NC(=O)Nc1csc2ccccc2c1=O | > 100
11 | CCCCNC(=O)Nc1csc2ccccc2c1=O | > 100
12 | CCNC(=O)Nc1csc2ccc(OC)cc2c1=O | > 100
13 | CC(C)(C)NC(=O)Nc1coc2ccccc2c1=O | > 100
14 | CCCCNC(=O)Nc1coc2ccccc2c1=O | > 100

Continued, values first:

Row | IC50 [µM] | Compound
15 | > 100 | COC(=O)C(=O)Nc1csc2ccccc2c1=O
16 | > 100 | CCC(=O)Nc1csc2ccccc2c1=O
17 | > 100 | O=C(O)C(=O)Nc1cc(=O)c2ccccc2s1
18 | > 100 | O=C(CCO)Nc1csc2ccccc2c1=O
19 | > 100 | CCNC(=O)Nc1csc2ccccc2c1=O
20 | 25 | O=c1cc(-c2ccc(O)cc2)oc2cc(O)cc(O)c12
21 | > 100 | CNC(=O)Nc1coc2ccccc2c1=O
22 | > 100 | CN(C)C(=O)Nc1coc2ccccc2c1=O
